Test results as given in US8569509B2, “Thiazole-4-carboxylic acid esters and thioesters as plant protection agents” (priority 2008, dated 2013).

Assay: log P determination (HPLC, calibration with unbranched alkan-2-ones)
Assay type: physicochemical
Settings: * LC-MS determination in the acidic range at pH 2.7, mobile phases 0.1% aqueous formic acid and acetonitrile (0.1% formic acid), linear gradient 10% to 95% acetonitrile; reversed-phase C 18 HPLC
Procedure: The calibration is carried out using unbranched alkan-2-ones (having 3 to 16 carbon atoms) with known log P values (determination of the log P values by the retention times using linear interpolation between two successive alkanones). The lambda-maX values were determined in the maxima of the chromatographic signals using the UV spectra from 200 nm to 400 nm.

| Structure (SMILES) | log p |
| --- | --- |
| CC(C(=O)N1CCC(c2nc(C(=O)Oc3cccc4ccccc34)cs2)CC1)n1ccc(C(F)(F)F)n1 (stereo not drawn) [compound 773] | 3.87* |
| CC(C(=O)N1CCC(c2nc(C(=O)OC3CCCCC3)cs2)CC1)n1ccc(C(F)(F)F)n1 (stereo not drawn) [compound 774] | 3.88* |
| Cc1cc(C(F)(F)F)nn1CC(=O)N1CCC(c2nc(C(=O)OCc3ccc(Cl)c(Cl)c3)cs2)CC1 [compound 775] | 4.09* |
| Cc1cc(C(F)(F)F)nn1CC(=O)N1CCC(c2nc(C(=O)OCc3ccc(C(F)(F)F)cc3)cs2)CC1 [compound 776] | 3.86* |
| O=C(Oc1cccc2ccccc12)c1csc(C2CCN(C(=O)Cn3nc(C(F)(F)F)cc3-c3ccccc3)CC2)n1 [compound 777] | 4.50* |
| Cc1cc(C(F)(F)F)nn1CC(=O)N1CCC(c2nc(C(=O)OC/C=C/c3ccccc3)cs2)CC1 [compound 779] | 3.74* |
| Cc1cc(C(F)(F)F)nn1CC(=O)N1CCC(c2nc(C(=O)OCc3cccnc3)cs2)CC1 [compound 780] | 1.74* |
| Cc1cc(C(F)(F)F)nn1CC(=O)N1CCC(c2nc(C(=O)Oc3ccc4cccnc4c3)cs2)CC1 [compound 781] | 2.42* |
| Cc1cc(C(F)(F)F)nn1CC(=O)N1CCC(c2nc(C(=O)Oc3cccc4cccnc34)cs2)CC1 [compound 782] | 2.88* |
| Cc1cc(C(F)(F)F)nn1CC(=O)N1CCC(c2nc(C(=O)OCc3cccc4ccccc34)cs2)CC1 [compound 783] | 3.90* |
| Cc1cc(C(F)(F)F)nn1CC(=O)N1CCC(c2nc(C(=O)OCc3ccc4ccccc4c3)cs2)CC1 [compound 784] | 3.92* |
| Cc1cc(C(F)(F)F)nn1CC(=O)N1CCC(c2nc(C(=O)OC(C)c3cccc4ccccc34)cs2)CC1 (stereo not drawn) [compound 785] | 4.16* |
| Cc1cc(C(F)(F)F)nn1CC(=O)N1CCC(c2nc(C(=O)OC(C)c3ccc4ccccc4c3)cs2)CC1 (stereo not drawn) [compound 786] | 4.18* |
| Cc1cc(C(F)(F)F)nn1CC(=O)N1CCC(c2nc(C(=O)OCC#Cc3ccccc3)cs2)CC1 [compound 787] | 3.70* |
| Cc1cc(C(F)(F)F)nn1CC(=O)N1CCC(c2nc(C(=O)OC3CCCCCC3)cs2)CC1 [compound 788] | 4.09* |
| Cc1cc(C(F)(F)F)nn1CC(=O)N1CCC(c2nc(C(=O)Oc3cccc4c3CCCC4)cs2)CC1 [compound 790] | 4.21* |
| Cc1cc(C(F)(F)F)nn1CC(=O)N1CCC(c2nc(C(=O)OC3Cc4ccccc4C3)cs2)CC1 [compound 791] | 3.67* |
| Cc1cc(C(F)(F)F)nn1CC(=O)N1CCC(c2nc(C(=O)Oc3cccc4c3CCCC4)cs2)CC1 [compound 792] | 4.30* |
| Cc1cc(C(F)(F)F)nn1CC(=O)N1CCC(c2nc(C(=O)Oc3ccc4ncccc4c3)cs2)CC1 [compound 793] | 2.37* |

| Structure (SMILES) | log p |
| --- | --- |
| Cc1cc(C(F)(F)F)nn1CC(=O)N1CCC(c2nc(C(=O)Oc3cccc4cnccc34)cs2)CC1 [compound 794] | 2.18* |
| Cc1cc(C(F)(F)F)nn1CC(=O)N1CCC(c2nc(C(=O)O[C@@H]3CCCc4ccccc43)cs2)CC1 [compound 795] | 4.06* |
| Cc1cc(C(F)F)n(CC(=O)N2CCC(c3nc(C(=O)OC4CCCCC4)cs3)CC2)n1 [compound 796] | 3.28* |
| Cc1cc(C)n(C(C)(C)C(=O)N2CCC(c3nc(C(=O)OC4CC(C)CCC4C(C)C)cs3)CC2)n1 (stereo not drawn) [compound 797] | 5.51* |
| C#CC1(OC(=O)c2csc(C3CCN(C(=O)C(C)(C)n4nc(C)cc4C)CC3)n2)CCCC1 [compound 798] | 3.28* |
| Cc1cc(C)n(C(C)(C)C(=O)N2CCC(c3nc(C(=O)OC4CC5CCC4(C)C5(C)C)cs3)CC2)n1 (stereo not drawn) [compound 800] | 5.08* |
| C=CC(CCC)OC(=O)c1csc(C2CCN(C(=O)C(C)(C)n3nc(C)cc3C)CC2)n1 (stereo not drawn) [compound 801] | 3.78* |
| Cc1cc(C)n(C(C)(C)C(=O)N2CCC(c3nc(C(=O)OC4CC(C)CC(C(C)C)C4)cs3)CC2)n1 (stereo not drawn) [compound 802] | 5.58* |
| Cc1cc(C)n(C(C)(C)C(=O)N2CCC(c3nc(C(=O)OCCN(C)C)cs3)CC2)n1 [compound 803] | 1.03* |
| C#CC1(OC(=O)c2csc(C3CCN(C(=O)C(C)(C)n4nc(C)cc4C)CC3)n2)CCCCC1 [compound 804] | 3.73* |
| CCCCC(CC)COC(=O)c1csc(C2CCN(C(=O)C(C)(C)n3nc(C)cc3C)CC2)n1 (stereo not drawn) [compound 806] | 5.08* |
| Cc1cc(C(F)(F)F)nn1CC(=O)N1CCC(c2nc(C(=O)Oc3cccc4ncccc34)cs2)CC1 [compound 807] | 2.59* |
| Cc1cc(C(F)(F)F)nn1CC(=O)N1CCC(c2nc(C(=O)OC(c3ccccc3)c3ccccc3)cs2)CC1 [compound 808] | 4.17* |
| Cc1cc(C(F)(F)F)nn1CC(=O)N1CCC(c2nc(C(=O)Oc3cccc4ocnc34)cs2)CC1 [compound 809] | 2.81* |
| COc1ccccc1OC(=O)c1csc(C2CCN(C(=O)Cn3nc(C(F)(F)F)cc3C)CC2)n1 [compound 814] | 3.17* |
| Cc1cc(C(F)(F)F)nn1CC(=O)N1CCC(c2nc(C(=O)OC(c3ccccc3)C3CC3)cs2)CC1 (stereo not drawn) [compound 815] | 3.87* |
| COc1cccc(OC)c1OC(=O)c1csc(C2CCN(C(=O)Cn3nc(C(F)(F)F)cc3C)CC2)n1 [compound 816] | 3.12* |
| COc1ccccc1COC(=O)c1csc(C2CCN(C(=O)Cn3nc(C(F)(F)F)cc3C)CC2)n1 [compound 817] | 3.44* |
| Cc1cc(C(F)(F)F)nn1CC(=O)N1CCC(c2nc(C(=O)OCc3c(Cl)cc(Cl)cc3Cl)cs2)CC1 [compound 818] | 4.53* |

Same assay, conditions: pH 2.7; read-out: log P (pH 2.7)

| Structure (SMILES) | chromatographic logP |
| --- | --- |
| CC(C)(C)CCOC(=O)c1csc(C2CCN(C(=O)Cn3ccc(C(F)(F)F)n3)CC2)n1 [compound 767, 3,3-Dimethylbutyl 2-(1-{[3-(trifluoromethyl)-1H-pyrazol-1-yl]acetyl}piperidin-4-yl)-1,3-thiazole-4-carboxylate] | 3.82 |
| O=C(Oc1cccc2ccccc12)c1csc(C2CCN(C(=O)Cn3nc(C(F)(F)F)cc3C(F)(F)F)CC2)n1 [compound 771, 1-Naphthyl 2-(1-{[3,5-bis(trifluoromethyl)-1H-pyrazol-1-yl]acetyl}piperidin-4-yl)-1,3-thiazole-4-carboxylate] | 4.35 |
| O=C(OC1CCCCC1)c1csc(C2CCN(C(=O)Cn3nc(C(F)(F)F)cc3C(F)(F)F)CC2)n1 [compound 772, Cyclohexyl 2-(1-{[3,5-bis(trifluoromethyl)-1H-pyrazol-1-yl]acetyl}piperidin-4-yl)-1,3-thiazole-4-carboxylate] | 4.39 |
| O=C(OC1CCCCC1)c1csc(C2CCN(C(=O)Cn3nc(C(F)F)cc3C(F)F)CC2)n1 [compound 811, Cyclohexyl 2-(1-{[3,5-bis(difluoromethyl)-1H-pyrazol-1-yl]acetyl}piperidin-4-yl)-1,3-thiazole-4-carboxylate] | 3.64 |
| O=C(Oc1cccc2ccccc12)c1csc(C2CCN(C(=O)Cn3nc(C(F)F)cc3C(F)F)CC2)n1 [compound 813, 1-Naphthyl 2-(1-{[3,5-bis(difluoromethyl)-1H-pyrazol-1-yl]acetyl}piperidin-4-yl)-1,3-thiazole-4-carboxylate] | 3.64 |

Same assay, conditions: reversed-phase (C18) HPLC column; * LC-MS determination in the acidic range at pH 2.7, 0.1% aqueous formic acid and acetonitrile, linear gradient 10% to 95% acetonitrile; read-out: log p

| Structure (SMILES) | chromatographic logP |
| --- | --- |
| CC(C)(C)CCOC(=O)c1csc(C2CCN(C(=O)Cn3ccc(C(F)(F)F)n3)CC2)n1 [compound 767, 3,3-Dimethylbutyl 2-(1-{[3-(trifluoromethyl)-1H-pyrazol-1-yl]acetyl}piperidin-4-yl)-1,3-thiazole-4-carboxylate] | 3.82 |

Same assay, conditions: reversed-phase C18 HPLC column; * LC-MS determination in the acidic range at pH 2.7, mobile phases 0.1% aqueous formic acid and acetonitrile (0.1% formic acid), linear gradient 10% to 95% acetonitrile; reversed-phase C 18 HPLC; read-out: log p

| Structure (SMILES) | chromatographic logP |
| --- | --- |
| O=C(Oc1cccc2ccccc12)c1csc(C2CCN(C(=O)Cn3nc(C(F)(F)F)cc3C(F)(F)F)CC2)n1 [compound 771, 1-Naphthyl 2-(1-{[3,5-bis(trifluoromethyl)-1H-pyrazol-1-yl]acetyl}piperidin-4-yl)-1,3-thiazole-4-carboxylate] | 4.35 |
| O=C(OC1CCCCC1)c1csc(C2CCN(C(=O)Cn3nc(C(F)(F)F)cc3C(F)(F)F)CC2)n1 [compound 772, Cyclohexyl 2-(1-{[3,5-bis(trifluoromethyl)-1H-pyrazol-1-yl]acetyl}piperidin-4-yl)-1,3-thiazole-4-carboxylate] | 4.39 |
| O=C(OC1CCCCC1)c1csc(C2CCN(C(=O)Cn3nc(C(F)F)cc3C(F)F)CC2)n1 [compound 811, Cyclohexyl 2-(1-{[3,5-bis(difluoromethyl)-1H-pyrazol-1-yl]acetyl}piperidin-4-yl)-1,3-thiazole-4-carboxylate] | 3.64 |
| O=C(Oc1cccc2ccccc12)c1csc(C2CCN(C(=O)Cn3nc(C(F)F)cc3C(F)F)CC2)n1 [compound 813, 1-Naphthyl 2-(1-{[3,5-bis(difluoromethyl)-1H-pyrazol-1-yl]acetyl}piperidin-4-yl)-1,3-thiazole-4-carboxylate] | 3.64 |
